Key:
Test in all cases: Caliper, Mobility shift assay off-chip
[1] = target: PTK6 (human) (UniProt Q13882)
[2] = target: DYRK2 (human) (UniProt Q92630)
[3] = target: DAPK2 (human) (UniProt Q9UIK4)
[4] = target: HIPK2 (human) (UniProt Q9H2X6)
[5] = target: MAPK1 (human) (UniProt P28482)
[6] = target: TLK2 (human) (UniProt Q86UE8)
[7] = target: AKT3 (human) (UniProt Q9Y243)
[8] = target: EPHB3 (human) (UniProt P54753)
[9] = target: FER (human) (UniProt P16591)
[10] = target: TAOK2 (human) (UniProt Q9UL54)
[11] = target: FES (human) (UniProt P07332)
[12] = target: EPHA7 (human) (UniProt Q15375)
[13] = target: DAPK1 (human) (UniProt P53355)
[14] = target: EPHA8 (human) (UniProt P29322)
[15] = target: GSG2 (human) (UniProt Q8TF76)
[16] = target: CLK3 (human) (UniProt P49761)
[17] = target: AURKA (human) (UniProt O14965)
[18] = target: DDR2 (human) (UniProt Q16832)
[19] = system: PDGFRA (human), P16234 [V561D]
[20] = target: MAPKAPK3 (human) (UniProt Q16644)
[21] = target: TYRO3 (human) (UniProt Q06418)
[22] = system: FGFR2 (human), P21802 [N549H]
[23] = target: CDK5 CDK5R1 p35 (human) (UniProt Q00535+Q15078)
[24] = target: IRAK1 (human) (UniProt P51617)
[25] = target: SRPK2 (human) (UniProt P78362)
[26] = target: CAMK1 (human) (UniProt Q14012)
[27] = target: PHKG2 (human) (UniProt P15735)
[28] = target: CSNK2A2 (human) (UniProt P19784)
[29] = target: HCK (human) (UniProt P08631)
[30] = target: PRKX (human) (UniProt P51817)
[31] = target: FLT1 (human) (UniProt P17948)
[32] = target: CAMK4 (human) (UniProt Q16566)
[33] = target: EPHA3 (human) (UniProt P29320)
[34] = target: PDGFRA (human) (UniProt P16234)
[35] = target: TNK2 (human) (UniProt Q07912)
[36] = target: NUAK1 (human) (UniProt O60285)
[37] = target: PTK2B (human) (UniProt Q14289)
[38] = system: KIT (human), P10721 [V560G]
[39] = target: STK4 (human) (UniProt Q13043)
[40] = target: MAP3K5 (human) (UniProt Q99683)
[41] = target: PDPK1 (human) (UniProt O15530); conditions: compound 1.0 µM

Chain of HIPK2 (human) (Q9H2X6 whole entry, looked up): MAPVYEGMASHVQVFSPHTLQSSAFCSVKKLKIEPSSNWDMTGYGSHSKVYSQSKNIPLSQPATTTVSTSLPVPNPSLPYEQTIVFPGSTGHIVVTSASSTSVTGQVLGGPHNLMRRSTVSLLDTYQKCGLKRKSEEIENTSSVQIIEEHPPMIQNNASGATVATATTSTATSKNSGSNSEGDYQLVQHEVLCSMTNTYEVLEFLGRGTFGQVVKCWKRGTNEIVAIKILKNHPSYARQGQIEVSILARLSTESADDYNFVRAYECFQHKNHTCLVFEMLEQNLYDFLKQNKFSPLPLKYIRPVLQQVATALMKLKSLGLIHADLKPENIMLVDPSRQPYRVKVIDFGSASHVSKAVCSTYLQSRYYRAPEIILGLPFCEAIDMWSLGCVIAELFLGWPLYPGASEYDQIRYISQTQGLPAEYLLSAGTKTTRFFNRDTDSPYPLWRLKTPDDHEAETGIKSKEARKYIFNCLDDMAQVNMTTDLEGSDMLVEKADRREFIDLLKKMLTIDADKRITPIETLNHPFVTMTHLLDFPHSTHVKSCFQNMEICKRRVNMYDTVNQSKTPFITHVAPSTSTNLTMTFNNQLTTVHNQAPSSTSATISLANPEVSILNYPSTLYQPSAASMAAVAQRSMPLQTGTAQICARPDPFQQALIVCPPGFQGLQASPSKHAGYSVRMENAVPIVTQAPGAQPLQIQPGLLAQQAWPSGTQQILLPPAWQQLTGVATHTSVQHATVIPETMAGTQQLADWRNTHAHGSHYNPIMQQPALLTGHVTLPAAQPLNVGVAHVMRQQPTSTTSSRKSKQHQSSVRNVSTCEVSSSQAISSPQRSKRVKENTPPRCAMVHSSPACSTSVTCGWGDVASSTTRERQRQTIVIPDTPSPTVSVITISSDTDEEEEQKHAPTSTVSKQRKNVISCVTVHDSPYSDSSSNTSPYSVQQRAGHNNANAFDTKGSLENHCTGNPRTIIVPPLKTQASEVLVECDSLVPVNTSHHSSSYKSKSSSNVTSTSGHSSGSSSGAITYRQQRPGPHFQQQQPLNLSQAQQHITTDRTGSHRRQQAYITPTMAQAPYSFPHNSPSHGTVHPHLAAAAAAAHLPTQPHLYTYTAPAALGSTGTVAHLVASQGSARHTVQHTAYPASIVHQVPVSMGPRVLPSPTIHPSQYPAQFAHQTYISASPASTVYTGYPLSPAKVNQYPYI
Chain of DDR2 (human) (Q16832 whole entry, looked up): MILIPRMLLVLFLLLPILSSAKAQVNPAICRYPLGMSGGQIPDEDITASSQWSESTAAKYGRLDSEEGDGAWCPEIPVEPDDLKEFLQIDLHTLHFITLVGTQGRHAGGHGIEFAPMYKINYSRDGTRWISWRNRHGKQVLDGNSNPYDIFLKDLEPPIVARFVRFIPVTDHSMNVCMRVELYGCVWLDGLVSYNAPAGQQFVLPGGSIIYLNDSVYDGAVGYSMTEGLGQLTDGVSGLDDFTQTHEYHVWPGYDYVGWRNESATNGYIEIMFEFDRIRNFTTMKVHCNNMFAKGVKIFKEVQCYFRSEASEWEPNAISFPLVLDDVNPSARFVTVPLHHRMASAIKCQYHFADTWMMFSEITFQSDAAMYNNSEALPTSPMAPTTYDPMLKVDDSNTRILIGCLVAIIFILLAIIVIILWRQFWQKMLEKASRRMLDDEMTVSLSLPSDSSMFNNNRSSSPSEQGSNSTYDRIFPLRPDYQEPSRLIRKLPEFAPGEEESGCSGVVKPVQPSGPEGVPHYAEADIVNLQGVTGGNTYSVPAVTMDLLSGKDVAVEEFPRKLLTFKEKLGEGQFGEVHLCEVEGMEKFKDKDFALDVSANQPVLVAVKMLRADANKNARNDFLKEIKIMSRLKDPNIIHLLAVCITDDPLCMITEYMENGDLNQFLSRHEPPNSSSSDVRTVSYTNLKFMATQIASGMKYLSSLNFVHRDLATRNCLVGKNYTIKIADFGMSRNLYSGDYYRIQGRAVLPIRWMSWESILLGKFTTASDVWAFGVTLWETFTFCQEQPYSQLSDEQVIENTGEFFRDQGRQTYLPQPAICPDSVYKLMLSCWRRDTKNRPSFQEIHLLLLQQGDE
Chain of MAPKAPK3 (human) (Q16644 whole entry, looked up): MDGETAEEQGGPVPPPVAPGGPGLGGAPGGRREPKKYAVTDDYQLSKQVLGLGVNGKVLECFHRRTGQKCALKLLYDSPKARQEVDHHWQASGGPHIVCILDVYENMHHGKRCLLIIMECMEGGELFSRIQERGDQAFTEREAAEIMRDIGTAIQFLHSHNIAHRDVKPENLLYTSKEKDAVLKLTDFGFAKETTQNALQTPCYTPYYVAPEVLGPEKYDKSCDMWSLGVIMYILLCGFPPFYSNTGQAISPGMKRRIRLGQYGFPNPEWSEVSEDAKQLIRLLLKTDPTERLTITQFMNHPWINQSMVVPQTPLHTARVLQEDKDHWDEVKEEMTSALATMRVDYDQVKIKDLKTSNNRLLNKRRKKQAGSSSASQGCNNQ
Chain of PHKG2 (human) (P15735 whole entry, looked up): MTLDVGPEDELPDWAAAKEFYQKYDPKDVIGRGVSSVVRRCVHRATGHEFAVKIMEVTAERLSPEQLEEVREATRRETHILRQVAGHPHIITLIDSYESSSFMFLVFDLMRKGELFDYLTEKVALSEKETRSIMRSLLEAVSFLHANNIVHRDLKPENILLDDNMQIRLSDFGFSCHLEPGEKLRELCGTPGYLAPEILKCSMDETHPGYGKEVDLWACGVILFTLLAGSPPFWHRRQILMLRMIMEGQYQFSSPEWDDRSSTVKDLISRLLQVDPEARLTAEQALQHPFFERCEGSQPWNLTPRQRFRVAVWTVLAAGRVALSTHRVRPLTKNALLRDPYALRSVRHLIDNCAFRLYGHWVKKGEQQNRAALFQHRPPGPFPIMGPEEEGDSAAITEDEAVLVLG
Chain of AKT3 (human) (Q9Y243 whole entry, looked up): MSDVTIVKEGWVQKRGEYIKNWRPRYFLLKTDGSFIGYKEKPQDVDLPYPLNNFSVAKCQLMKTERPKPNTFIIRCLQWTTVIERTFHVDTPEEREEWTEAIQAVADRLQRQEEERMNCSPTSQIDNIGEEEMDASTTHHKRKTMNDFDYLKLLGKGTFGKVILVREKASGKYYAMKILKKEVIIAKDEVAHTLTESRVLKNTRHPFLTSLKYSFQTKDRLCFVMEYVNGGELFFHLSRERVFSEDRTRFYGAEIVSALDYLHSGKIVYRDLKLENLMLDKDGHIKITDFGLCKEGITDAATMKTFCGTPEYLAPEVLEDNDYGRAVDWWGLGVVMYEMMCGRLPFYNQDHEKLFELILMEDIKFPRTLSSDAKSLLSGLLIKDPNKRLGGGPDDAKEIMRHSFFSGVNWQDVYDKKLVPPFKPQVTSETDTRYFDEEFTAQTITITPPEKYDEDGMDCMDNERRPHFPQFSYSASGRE
Chain of CAMK1 (human) (Q14012 whole entry, looked up): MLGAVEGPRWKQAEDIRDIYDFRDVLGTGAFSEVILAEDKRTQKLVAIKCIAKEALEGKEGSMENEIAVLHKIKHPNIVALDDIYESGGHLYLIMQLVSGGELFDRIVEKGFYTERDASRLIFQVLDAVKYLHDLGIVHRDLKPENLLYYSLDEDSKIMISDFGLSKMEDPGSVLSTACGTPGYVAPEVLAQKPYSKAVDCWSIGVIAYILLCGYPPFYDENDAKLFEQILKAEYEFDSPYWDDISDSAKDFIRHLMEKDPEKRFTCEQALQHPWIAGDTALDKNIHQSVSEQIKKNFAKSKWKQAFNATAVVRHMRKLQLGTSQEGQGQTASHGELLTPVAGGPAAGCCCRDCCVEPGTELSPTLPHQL
Chain of PTK2B (human) (Q14289 whole entry, looked up): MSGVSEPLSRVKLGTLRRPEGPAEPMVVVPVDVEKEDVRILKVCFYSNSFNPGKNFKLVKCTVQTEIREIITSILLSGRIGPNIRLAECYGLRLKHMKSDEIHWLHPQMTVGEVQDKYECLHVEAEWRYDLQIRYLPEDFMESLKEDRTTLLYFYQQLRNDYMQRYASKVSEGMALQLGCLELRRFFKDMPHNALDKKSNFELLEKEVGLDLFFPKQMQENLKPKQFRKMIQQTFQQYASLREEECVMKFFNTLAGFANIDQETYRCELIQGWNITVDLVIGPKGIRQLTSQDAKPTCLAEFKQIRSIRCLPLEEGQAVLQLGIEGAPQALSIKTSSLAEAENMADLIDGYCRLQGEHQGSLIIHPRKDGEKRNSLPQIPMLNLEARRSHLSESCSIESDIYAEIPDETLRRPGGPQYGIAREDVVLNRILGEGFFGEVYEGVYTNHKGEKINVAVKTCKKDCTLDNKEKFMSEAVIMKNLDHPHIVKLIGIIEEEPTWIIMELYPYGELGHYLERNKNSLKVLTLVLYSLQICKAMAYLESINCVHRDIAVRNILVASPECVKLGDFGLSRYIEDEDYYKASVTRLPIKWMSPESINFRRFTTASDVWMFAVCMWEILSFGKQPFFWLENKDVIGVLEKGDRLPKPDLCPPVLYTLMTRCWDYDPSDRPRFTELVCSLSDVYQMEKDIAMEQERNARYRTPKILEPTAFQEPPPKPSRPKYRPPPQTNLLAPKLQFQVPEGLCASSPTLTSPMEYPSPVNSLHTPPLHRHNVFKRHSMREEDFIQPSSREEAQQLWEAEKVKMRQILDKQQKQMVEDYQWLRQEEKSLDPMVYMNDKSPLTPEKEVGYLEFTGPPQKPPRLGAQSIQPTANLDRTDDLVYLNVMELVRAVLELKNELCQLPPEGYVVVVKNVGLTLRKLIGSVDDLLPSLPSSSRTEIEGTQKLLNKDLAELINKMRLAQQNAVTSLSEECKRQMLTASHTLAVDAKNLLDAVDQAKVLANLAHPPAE
Chain of CSNK2A2 (human) (P19784 whole entry, looked up): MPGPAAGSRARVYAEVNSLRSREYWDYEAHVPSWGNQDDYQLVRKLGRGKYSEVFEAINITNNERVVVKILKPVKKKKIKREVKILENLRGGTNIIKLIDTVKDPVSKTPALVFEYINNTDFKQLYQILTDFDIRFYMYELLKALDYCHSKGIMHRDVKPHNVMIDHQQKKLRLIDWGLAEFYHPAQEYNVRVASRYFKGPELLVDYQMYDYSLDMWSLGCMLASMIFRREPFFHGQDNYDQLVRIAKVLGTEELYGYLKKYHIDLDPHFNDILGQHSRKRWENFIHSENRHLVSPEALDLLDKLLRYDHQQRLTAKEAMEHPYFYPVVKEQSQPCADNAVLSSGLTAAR

O=C(N[C@@H](COc1ccc2[nH]c(=O)[nH]c2c1)c1ccccc1)c1cccn(Cc2ccc(F)c(F)c2)c1=O
residual activity ([1]; compound 10.0 µM): 116% | residual activity ([2]; compound 10.0 µM): 101% | residual activity ([3]; compound 10.0 µM): 94% | residual activity ([4]; compound 10.0 µM): 107% | residual activity ([5]; compound 10.0 µM): 89% | residual activity ([6]; compound 10.0 µM): 100% | residual activity ([7]; compound 10.0 µM): 99% | residual activity ([8]; compound 10.0 µM): 129% | residual activity ([9]; compound 10.0 µM): 98% | residual activity ([10]; compound 10.0 µM): 98% | residual activity ([11]; compound 10.0 µM): 122% | residual activity ([12]; compound 10.0 µM): 103% | residual activity ([13]; compound 10.0 µM): 113% | residual activity ([14]; compound 10.0 µM): 107% | residual activity ([15]; compound 10.0 µM): 74% | residual activity ([16]; compound 10.0 µM): 115% | residual activity ([17]; compound 10.0 µM): 107% | residual activity ([18]; compound 10.0 µM): 118% | residual activity ([19]; compound 10.0 µM): 112% | residual activity ([20]; compound 10.0 µM): 102% | residual activity ([21]; compound 10.0 µM): 118% | residual activity ([22]; compound 10.0 µM): 106% | residual activity ([23]; compound 10.0 µM): 97% | residual activity ([24]; compound 10.0 µM): 100% | residual activity ([25]; compound 10.0 µM): 102% | residual activity ([26]; compound 10.0 µM): 96% | residual activity ([27]; compound 10.0 µM): 101% | residual activity ([28]; compound 10.0 µM): 105% | residual activity ([29]; compound 10.0 µM): 110% | residual activity ([30]; compound 10.0 µM): 107% | residual activity ([31]; compound 10.0 µM): 95% | residual activity ([32]; compound 10.0 µM): 96% | residual activity ([33]; compound 10.0 µM): 118% | residual activity ([34]; compound 10.0 µM): 108% | residual activity ([35]; compound 10.0 µM): 101% | residual activity ([36]; compound 10.0 µM): 106% | residual activity ([37]; compound 10.0 µM): 98% | residual activity ([38]; compound 10.0 µM): 99% | residual activity ([39]; compound 10.0 µM): 103% | residual activity ([40]; compound 10.0 µM): 99%

C[C@@H](Nc1nc2c(C#CC3CC3)c[nH]c(=O)c2c2cc(-c3cn[nH]c3)ccc12)C(C)(C)C
residual activity ([1]; compound 1.0 µM): 105% | residual activity ([2]; compound 1.0 µM): 102% | residual activity ([3]; compound 1.0 µM): 36% | residual activity ([4]; compound 1.0 µM): 104% | residual activity ([5]; compound 1.0 µM): 99% | residual activity ([6]; compound 1.0 µM): 80% | residual activity ([7]; compound 1.0 µM): 102% | residual activity ([8]; compound 1.0 µM): 132% | residual activity ([9]; compound 1.0 µM): 6% | residual activity ([10]; compound 1.0 µM): 101% | residual activity ([11]; compound 1.0 µM): 92% | residual activity ([12]; compound 1.0 µM): 102% | residual activity ([13]; compound 1.0 µM): 82% | residual activity ([14]; compound 1.0 µM): 108% | residual activity ([15]; compound 1.0 µM): 158% | residual activity ([16]; compound 1.0 µM): 108% | residual activity [41]: 2% | residual activity ([17]; compound 1.0 µM): 7% | residual activity ([18]; compound 1.0 µM): 101% | residual activity ([19]; compound 1.0 µM): 1% | residual activity ([20]; compound 1.0 µM): 95% | residual activity ([21]; compound 1.0 µM): 94% | residual activity ([22]; compound 1.0 µM): 23% | residual activity ([23]; compound 1.0 µM): 122% | residual activity ([24]; compound 1.0 µM): 102% | residual activity ([25]; compound 1.0 µM): 107% | residual activity ([26]; compound 1.0 µM): 63% | residual activity ([27]; compound 1.0 µM): 76% | residual activity ([28]; compound 1.0 µM): 112% | residual activity ([29]; compound 1.0 µM): 31% | residual activity ([30]; compound 1.0 µM): 103% | residual activity ([31]; compound 1.0 µM): 28% | residual activity ([32]; compound 1.0 µM): 22% | residual activity ([33]; compound 1.0 µM): 111% | residual activity ([34]; compound 1.0 µM): 74% | residual activity ([35]; compound 1.0 µM): 32% | residual activity ([36]; compound 1.0 µM): 11% | residual activity ([37]; compound 1.0 µM): 59% | residual activity ([38]; compound 1.0 µM): 9% | residual activity ([39]; compound 1.0 µM): 30% | residual activity ([40]; compound 1.0 µM): 104%
